Measurements: PubChem BioAssay (NCI)
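48-hour exposure; five concentrations; linearly interpolated endpoints. At the GI50, growth is halved. TGI is the concentration that stops growth completely.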

Assays:
Experiment in all cases: NCI-60 cell line screen, 48 h
[1] = test system: SR leukemia
[2] = test system: BT-549 breast
[3] = test system: CAKI-1 renal
[4] = test system: MCF7 breast
[5] = test system: SK-OV-3 ovarian
[6] = test system: EKVX NSCLC
[7] = test system: OVCAR-3 ovarian
[8] = test system: MOLT-4 leukemia
[9] = test system: KM12 colon
[10] = test system: IGROV1 ovarian
[11] = test system: NCI-H226 lung
[12] = test system: K-562 leukemia
[13] = test system: NCI-H460 lung
[14] = test system: ACHN renal
[15] = test system: HS 578T breast
[16] = test system: HOP-92 NSCLC
[17] = test system: 786-0 renal
[18] = test system: PC-3 prostate
[19] = test system: SW-620 colon
[20] = test system: SN12C renal
[21] = test system: SK-MEL-5 melanoma
[22] = test system: NCI-H23 lung
[23] = test system: RXF 393 renal
[24] = test system: UACC-257 melanoma
[25] = test system: TK-10 renal
[26] = test system: OVCAR-5 ovarian
[27] = test system: SF-539 CNS
[28] = test system: U251 CNS
[29] = test system: NCI-H522 lung
[30] = test system: HOP-62 NSCLC
[31] = test system: OVCAR-4 ovarian
[32] = test system: SK-MEL-28 melanoma
[33] = test system: A549 NSCLC
[34] = test system: SF-295 CNS
[35] = test system: HCC-2998 colon
[36] = test system: UACC-62 melanoma
[37] = test system: MDA-MB-435
[38] = test system: SNB-19 CNS
[39] = test system: HT29 colon
[40] = test system: SNB-75 CNS
[41] = test system: HL-60(TB) leukemia
[42] = test system: RPMI-8226 leukemia
[43] = test system: T-47D breast
[44] = test system: UO-31 renal
[45] = test system: CCRF-CEM leukemia
[46] = test system: DU-145 prostate
[47] = test system: M14 melanoma
[48] = test system: MALME-3M melanoma
[49] = test system: HCT-116 colon
[50] = test system: A498 renal
[51] = test system: SK-MEL-2 melanoma
[52] = test system: COLO 205 colon
[53] = test system: LOX IMVI melanoma
[54] = test system: HCT-15 colon
[55] = test system: OVCAR-8 ovarian
[56] = test system: SF-268 CNS
[57] = test system: MDA-MB-231 breast
[58] = test system: NCI/ADR-RES ovarian

CN1CCN(Cc2ccc(NC(=O)c3nc4ccc5[nH]ncc5c4c4c3CCCC4)cc2C(F)(F)F)CC1
GI50 [1]: 0.469 µM
TGI [1]: 3.48 µM
GI50 [2]: 2.13 µM
TGI [2]: 4.24 µM
GI50 [3]: 0.816 µM
TGI [3]: 1.53 µM
GI50 [4]: 0.848 µM
TGI [4]: 1.69 µM
GI50 [5]: 7.08 µM
TGI [5]: 14 µM
GI50 [6]: 0.802 µM
TGI [6]: 1.53 µM
GI50 [7]: 0.868 µM
TGI [7]: 1.6 µM
GI50 [8]: 0.995 µM
TGI [8]: 2.39 µM
GI50 [9]: 0.86 µM
TGI [9]: 1.61 µM
GI50 [10]: 0.883 µM
TGI [10]: 1.67 µM
GI50 [11]: 0.862 µM
TGI [11]: 1.77 µM
GI50 [12]: 0.701 µM
TGI [12]: 1.96 µM
GI50 [13]: 0.906 µM
TGI [13]: 1.74 µM
GI50 [14]: 0.862 µM
TGI [14]: 1.55 µM
GI50 [15]: 0.922 µM
TGI [15]: 1.97 µM
GI50 [16]: 0.653 µM
TGI [16]: 1.35 µM
GI50 [17]: 0.895 µM
TGI [17]: 1.73 µM
GI50 [18]: 0.866 µM
TGI [18]: 1.66 µM
GI50 [19]: 0.892 µM
TGI [19]: 1.74 µM
GI50 [20]: 0.877 µM
TGI [20]: 1.65 µM
GI50 [21]: 0.852 µM
TGI [21]: 1.54 µM
GI50 [22]: 0.901 µM
TGI [22]: 1.74 µM
GI50 [23]: 0.806 µM
TGI [23]: 1.53 µM
GI50 [24]: 0.92 µM
TGI [24]: 1.84 µM
GI50 [25]: 0.846 µM
TGI [25]: 1.62 µM
GI50 [26]: 0.843 µM
TGI [26]: 1.58 µM
GI50 [27]: 0.831 µM
TGI [27]: 1.54 µM
GI50 [28]: 0.909 µM
TGI [28]: 1.78 µM
GI50 [29]: 0.922 µM
TGI [29]: 1.86 µM
GI50 [30]: 0.967 µM
TGI [30]: 1.92 µM
GI50 [31]: 0.861 µM
TGI [31]: 1.67 µM
GI50 [32]: 0.862 µM
TGI [32]: 1.58 µM
GI50 [33]: 0.89 µM
TGI [33]: 1.79 µM
GI50 [34]: 0.879 µM
TGI [34]: 1.65 µM
GI50 [35]: 0.867 µM
TGI [35]: 1.63 µM
GI50 [36]: 0.905 µM
TGI [36]: 1.74 µM
GI50 [37]: 0.841 µM
TGI [37]: 1.56 µM
GI50 [38]: 0.868 µM
TGI [38]: 1.62 µM
GI50 [39]: 0.894 µM
TGI [39]: 1.81 µM
GI50 [40]: 0.77 µM
TGI [40]: 1.49 µM
GI50 [41]: 0.943 µM
TGI [41]: 2.02 µM
GI50 [42]: 1.11 µM
TGI [42]: 2.69 µM
GI50 [43]: 0.926 µM
TGI [43]: 2.03 µM
GI50 [44]: 0.785 µM
TGI [44]: 1.48 µM
GI50 [45]: 1.12 µM
TGI [45]: 2.99 µM
GI50 [46]: 0.902 µM
TGI [46]: 1.63 µM
GI50 [47]: 0.902 µM
TGI [47]: 1.77 µM
GI50 [48]: 0.764 µM
TGI [48]: 1.53 µM
GI50 [49]: 0.855 µM
TGI [49]: 1.71 µM
GI50 [50]: 0.977 µM
TGI [50]: 2.32 µM
GI50 [51]: 1.03 µM
TGI [51]: 2.2 µM
GI50 [52]: 0.88 µM
TGI [52]: 1.73 µM
GI50 [53]: 0.846 µM
TGI [53]: 1.55 µM
GI50 [54]: 0.792 µM
TGI [54]: 1.52 µM
GI50 [55]: 0.998 µM
TGI [55]: 2.08 µM
GI50 [56]: 0.865 µM
TGI [56]: 1.7 µM
GI50 [57]: 0.88 µM
TGI [57]: 1.65 µM
GI50 [58]: 0.847 µM
TGI [58]: 1.58 µM
